Laboratory results: the supplement of paper PMC11451515

Legend:
Settings in all cases: 48 h
NOMO1 [1] = test: cell viability relative to DMSO control; higher = less cytotoxic
Summary of the method: (§1)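 Library compounds in DMSO were pin-dosed into 1536-well plates (5 μl) holding NOMO1 or SEM (500 cells/well) or P12-Ichikawa (1000 cells/well) leukemia cells, across an 11-point threefold series of 47 μM to 0.79 nM. Each cell line had been adapted for at least four passages in each medium. CellTiter-Glo One luminescence was read after 48 h at 37°C. Viability is the per-plate percentage relative to DMSO wells, with cell-free wells as background.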

P12-Ichikawa [2] = test: as above
Summary of the method: as §1

SEM cells [3] = test: as above
Summary of the method: as §1

NOMO1 [4] = test: AUC of viability dose-response curve (% viability x log10 dose units); higher = less sensitive
Summary of the method: (§2)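 Leukemia cells adapted to each medium were seeded in 1536-well plates (500 or 1000 cells/well). They were dosed with library compounds in DMSO at 11 threefold doses, 47 μM to 0.79 nM, for 48 h at 37°C. CellTiter-Glo One luminescence was normalised per plate to DMSO and cell-free wells. Area under the curve was integrated by trapezoidal rule over log10 doses on a four-parameter log-logistic fit; curves exceeding full viability were scaled and curves failing quality control removed.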

P12-Ichikawa [5] = test: as above
Summary of the method: as §2

SEM cells [6] = test: as above
Summary of the method: as §2

O=C(O)C1=NC(C(=O)O)CC(/C=C/N2c3cc(O)c(OC4OC(CO)C(O)C(O)C4O)cc3CC2C(=O)O)=C1 (stereo unspecified)
cell viability [%]
Settings | NOMO1 [1] | P12-Ichikawa [2] | SEM cells [3]
HPLM + 10% dialyzed FBS, 0.000781 µM | 111 | 104 | 109
HPLM + 10% dialyzed FBS, 0.00234 µM | 111 | 107 | 106
HPLM + 10% dialyzed FBS, 0.00702 µM | 115 | 104 | 110
HPLM + 10% dialyzed FBS, 0.0211 µM | 103 | 96.9 | 109
HPLM + 10% dialyzed FBS, 0.0632 µM | 117 | 98.5 | 101
HPLM + 10% dialyzed FBS, 0.19 µM | 106 | 104 | 113
HPLM + 10% dialyzed FBS, 0.569 µM | 99.1 | 106 | 112
HPLM + 10% dialyzed FBS, 1.71 µM | 109 | 102 | 104
HPLM + 10% dialyzed FBS, 5.12 µM | 98.7 | 96.8 | 103
HPLM + 10% dialyzed FBS, 15.4 µM | 107 | 98 | 95.9
HPLM + 10% dialyzed FBS, 46.1 µM | 109 | 98.4 | 103
RPMI 5 mM glucose + 10% FBS, 0.000781 µM | 86.4 | 97.2 | 102
RPMI 5 mM glucose + 10% FBS, 0.00234 µM | 86.7 | 110 | 107
RPMI 5 mM glucose + 10% FBS, 0.00702 µM | 94.2 | 106 | 101
RPMI 5 mM glucose + 10% FBS, 0.0211 µM | 99.4 | 99.1 | 113
RPMI 5 mM glucose + 10% FBS, 0.0632 µM | 119 | 95.8 | 101
RPMI 5 mM glucose + 10% FBS, 0.19 µM | 108 | 89.9 | 111
RPMI 5 mM glucose + 10% FBS, 0.569 µM | 98.4 | 90.8 | 115
RPMI 5 mM glucose + 10% FBS, 1.71 µM | 93.5 | 106 | 102
RPMI 5 mM glucose + 10% FBS, 5.12 µM | 94 | 96.5 | 102
RPMI 5 mM glucose + 10% FBS, 15.4 µM | 90.6 | 96.8 | 101
RPMI 5 mM glucose + 10% FBS, 46.1 µM | 104 | 97.4 | 97.2
RPMI 5 mM glucose + 10% dialyzed FBS, 0.000781 µM | 104 | 101 | 112
RPMI 5 mM glucose + 10% dialyzed FBS, 0.00234 µM | 101 | 99.2 | 113
RPMI 5 mM glucose + 10% dialyzed FBS, 0.00702 µM | 101 | 106 | 102
RPMI 5 mM glucose + 10% dialyzed FBS, 0.0211 µM | 113 | 102 | 118
RPMI 5 mM glucose + 10% dialyzed FBS, 0.0632 µM | 104 | 106 | 108
RPMI 5 mM glucose + 10% dialyzed FBS, 0.19 µM | 101 | 104 | 112
RPMI 5 mM glucose + 10% dialyzed FBS, 0.569 µM | 94.2 | 93.2 | 105
RPMI 5 mM glucose + 10% dialyzed FBS, 1.71 µM | 98.2 | 99.5 | 96.4
RPMI 5 mM glucose + 10% dialyzed FBS, 5.12 µM | 92.4 | 100 | 111
RPMI 5 mM glucose + 10% dialyzed FBS, 15.4 µM | 104 | 91.9 | 105
RPMI 5 mM glucose + 10% dialyzed FBS, 46.1 µM | 117 | 90.9 | 96.9

AUC of viability dose-response curve
Settings | NOMO1 [4] | P12-Ichikawa [5] | SEM cells [6]
HPLM + 10% dialyzed FBS | 462 | 463 | 467
RPMI 5 mM glucose + 10% FBS | 465 | 450 | 466
RPMI 5 mM glucose + 10% dialyzed FBS | 421 | 462 | 461

O=C(Nc1c(Cl)cncc1Cl)c1ccc(OC(F)F)c(OCC2CC2)c1
cell viability [%]
Settings | NOMO1 [1] | P12-Ichikawa [2] | SEM cells [3]
HPLM + 10% dialyzed FBS, 0.000781 µM | 108 | 101 | 93.8
HPLM + 10% dialyzed FBS, 0.00234 µM | 126 | 112 | 90.5
HPLM + 10% dialyzed FBS, 0.00702 µM | 111 | 118 | 94.2
HPLM + 10% dialyzed FBS, 0.0211 µM | 97.5 | 105 | 96.8
HPLM + 10% dialyzed FBS, 0.0632 µM | 123 | 114 | 105
HPLM + 10% dialyzed FBS, 0.19 µM | 105 | 113 | 102
HPLM + 10% dialyzed FBS, 0.569 µM | 130 | 111 | 109
HPLM + 10% dialyzed FBS, 1.71 µM | 124 | 115 | 110
HPLM + 10% dialyzed FBS, 5.12 µM | 109 | 117 | 100
HPLM + 10% dialyzed FBS, 15.4 µM | 98.5 | 108 | 90.6
HPLM + 10% dialyzed FBS, 46.1 µM | 100 | 104 | 107
RPMI 5 mM glucose + 10% FBS, 0.000781 µM | 94.4 | 103 | 86.3
RPMI 5 mM glucose + 10% FBS, 0.00234 µM | 102 | 116 | 93.9
RPMI 5 mM glucose + 10% FBS, 0.00702 µM | 101 | 111 | 107
RPMI 5 mM glucose + 10% FBS, 0.0211 µM | 99.1 | 115 | 82
RPMI 5 mM glucose + 10% FBS, 0.0632 µM | 108 | 122 | 90.4
RPMI 5 mM glucose + 10% FBS, 0.19 µM | 106 | 121 | 97.4
RPMI 5 mM glucose + 10% FBS, 0.569 µM | 120 | 119 | 95.4
RPMI 5 mM glucose + 10% FBS, 1.71 µM | 107 | 106 | 93.6
RPMI 5 mM glucose + 10% FBS, 5.12 µM | 102 | 110 | 93.5
RPMI 5 mM glucose + 10% FBS, 15.4 µM | 103 | 106 | 101
RPMI 5 mM glucose + 10% FBS, 46.1 µM | 99.7 | 106 | 103
RPMI 5 mM glucose + 10% dialyzed FBS, 0.000781 µM | 94.5 | 96.8 | 92.4
RPMI 5 mM glucose + 10% dialyzed FBS, 0.00234 µM | 106 | 107 | 90.5
RPMI 5 mM glucose + 10% dialyzed FBS, 0.00702 µM | 112 | 100 | 102
RPMI 5 mM glucose + 10% dialyzed FBS, 0.0211 µM | 101 | 108 | 87.6
RPMI 5 mM glucose + 10% dialyzed FBS, 0.0632 µM | 107 | 106 | 96.6
RPMI 5 mM glucose + 10% dialyzed FBS, 0.19 µM | 112 | 108 | 94.3
RPMI 5 mM glucose + 10% dialyzed FBS, 0.569 µM | 106 | 114 | 102
RPMI 5 mM glucose + 10% dialyzed FBS, 1.71 µM | 114 | 111 | 111
RPMI 5 mM glucose + 10% dialyzed FBS, 5.12 µM | 97.8 | 113 | 101
RPMI 5 mM glucose + 10% dialyzed FBS, 15.4 µM | 99.6 | 109 | 85.8
RPMI 5 mM glucose + 10% dialyzed FBS, 46.1 µM | 102 | 105 | 85.7

AUC of viability dose-response curve
Settings | NOMO1 [4] | P12-Ichikawa [5] | SEM cells [6]
HPLM + 10% dialyzed FBS | 459 | 475 | 453
RPMI 5 mM glucose + 10% FBS | 465 | 467 | 452
RPMI 5 mM glucose + 10% dialyzed FBS | 476 | 466 | 455
